Results on three compounds are retold here after US6699676B1, “Uses of ouabain and ouabain-like molecules in apoptosis related pathologies” (Corporation du Centre de Recherche du Centre, Hospitalier …, priority 1999, dated 2004).

One assay has as its system VSMC. The note with it: moderate elevation of [Ca2+]i, reference (37); cited from earlier work.
A further assay deals with caspase-3. In kind it is biochemical, rat. To be noted: lysates of VSMC-E1A after 6 hours serum withdrawal, 100 mM added, data not shown. Here is the method:
(§1) To examine this hypothesis, we measured the activity of caspases in lysates of VSMC-E1A subjected to 6 hours serum withdrawal has been measured.
(§2) Caspase activity. VSMC-E1A seeded in 20 cm^2 flasks and treated as indicated in FIG. 5 were scratched, transferred to centrifuge tubes, washed twice with PBS and lysed in 0.5 ml of buffer A contaming 50 mM tris-HCl (pH 7.4), 5 mM MgCl2, 1 mM EGTA and 0.1% CHAPS. Then, 50-100 μl of cell lysate was mixed with 600 μl of buffer A containing 1 mM dithiothreitol, 40 μM YVAD-AMC or DEVD-AMC with or without 1 μM of caspase-1 and capspase-3 inhibitors (Ac-YVAD-CHO and Ac-DEVD-CHO, respectively), incubated for 2 hours at 37° C. and diluted 15-fold with 80 mM glycine-NaOH buffer (pH 10). Fluorescence of the samples was measured at ex=365 run and em=465 run and calibrated with AMC in the range of 10 to 100 nM. To measure caspase activity in control and ouabain-treated Jurkat cells, 5 ml of suspension containing ˜2×10^7 cells was transferred onto ice and sedimented. The pellet of cells was washed and treated with 0.3 ml of medium A in the same way as VSMC. Protein content was estimated by Bradford methods.

Another assay addresses T1, caspase-1 (Rattus norvegicus, UniProt P43527).
T1 construct: we measured the activity of caspases in lysates of VSMC-E1A subjected to 6 hours serum withdrawal; endogenous in cells; host or cells: VSMC-E1A (rat aortic vascular smooth muscle cells transfected with E1A adenoviral protein), cell lysate
T1 sequence (P43527 119-402): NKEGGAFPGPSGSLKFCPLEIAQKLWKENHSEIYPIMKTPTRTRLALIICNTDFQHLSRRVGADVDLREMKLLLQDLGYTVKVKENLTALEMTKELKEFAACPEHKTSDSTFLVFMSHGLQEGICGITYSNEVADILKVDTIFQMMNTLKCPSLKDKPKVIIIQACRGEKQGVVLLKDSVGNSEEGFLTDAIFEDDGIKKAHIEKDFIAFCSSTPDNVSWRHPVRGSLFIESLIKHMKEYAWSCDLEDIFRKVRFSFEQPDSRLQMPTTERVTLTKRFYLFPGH
It counts as biochemical. The note with it: lysates of VSMC-E1A after 6 hours serum withdrawal, 100 mM added, data not shown. Here is the method: as §1, §2

`C/C=C(/C)C(=O)O[C@H]1C(C)=C2[C@H]([C@@H]1OC(=O)CCCCCCC)[C@@](C)(OC(C)=O)C[C@H](OC(=O)CCC)[C@@]1(O)[C@H]2OC(=O)[C@@]1(C)O` [thapsigargin]: in the assay on VSMC, the “effect on VSMC apoptosis” value is given as “did not observe any effect”.

Turning to `C[C@H](CCC(=O)O)C[C@H](C)C[C@H](C)C(=O)/C=C(\O)[C@H](C)C[C@H](C)C/C=C/[C@@H](C)[C@@H](O)[C@@H](C)[C@@H](O)C[C@@H]1CC[C@@](C)([C@H]2CC[C@@](C)([C@@H](C)O)O2)O1` [ionomycin], the “effect on VSMC apoptosis” value with VSMC was “did not observe any effect”.

As for `C[N+](C)(C)CCO.[Cl-]` [choline chloride], in the assay with caspase-3, the “decrease of caspase-3 activity” value is listed as “the same level of inhibition”. Besides, on caspase-1, the “decrease of caspase-1 activity” value is on record as “the same level of inhibition”.
